Test results: patent publication EP3650451A1, “COMPOUNDS AND THEIR USES AS FLUORESCENT PROBES” (Consejo Superior de Investigaciones Cientificas, priority 2017, dated 2019)

Tests used:
[1] = Photophysical characterization: absorption and fluorescence spectra; format: physicochemical; details: for λfl: Fluorescence peak wavelength: excitation at 490 nm; for φf: Quantum yield: reference PM567 in ethanol
Description: The photophysical characterization of probes 3 and 4 was carried out analyzing the corresponding absorption and fluorescence spectra in the UV-visible region of the spectrum.
Its photophysical behavior is dependent on the degree of substitution of the BODIPY, since the alkylation of the chromatophore induces sufficient steric hindrance to reduce the free rotation of the 8-mesityl group, a process that entails a significant reduction in fluorescence efficiency. Thus, probe 4 in water stands out for having a high molar absorption coefficient (3.8 × 10^4 M^-1 cm^-1 at 499 nm) and a very efficient fluorescence emission at 511 nm, with a quantum yield of up to 80%.

[2] = system: SCC38 cells; assay: Inhibition of mitochondrial staining by (R)-palmitoylcarnitine (CACT substrate), flow cytometry; format: cell-based, human; details: co-incubation, probe 50 nm, (R)-palmitoylcarnitine 100, 250 and 500 nM
Description: The SCC38 cells were co-incubated with the indicated concentrations of (R)-palmitoylcarnitine and 50 nM of 4 (A) or 50 nM of MitoTracker (B) before analyzing by flow cytometry. The data represent the mean fluorescence intensity (MFI) of the stained cells (upper panels) and representative images of the cytometry profiles (lower panels). • Fig. 7.
To test if CACT was in fact involved in the channeling of 4 to the mitochondrial matrix, we firstly studied the effect of (R)-(+)-palmitoylcarnitine, a natural CACT substrate, in cell labeling by 4.

[3] = Time evolution of the photophysical properties in water; format: physicochemical; parameters: key to φ: fluorescence quantum yield, fraction (0.65 = 65%); details: for kfl / knr / εmax / λab / λfl / τ / φ: water
Description: Indeed, the fluorescence yield remains constant for 7 hours. However, due to the oligomerization of hydrolysis product 6 and to the ensuing precipitation of the resulting oligomers, fluorescence efficiency gradually decreases in 24 hours, although it maintains a quantum yield of 65%. […] Indeed, the diffusion of the dye outside of the cell organelle, which occurs in dyes not covalently bonded thereto, is one of the main problems in the development of fluorescent biological markers because it entails a significant reduction in fluorescent efficiency and, thus, in the accuracy and reproducibility of the experiments. The rational design of probe 4 must, therefore, prevent this loss of fluorescence signal and improve the quality and accuracy of the measurements, thereby enhancing its applicability as a biological probe.

photostability [1]: high photostability
kfl: Radiative decay constant ([1]; Acetone): 1.27 10^8s^- 1
knr: Non-Radiative decay constant ([1]; Acetone): 0.16 10^8s^- 1
Δv: Stokes shift ([1]; Acetone): 504 cm⁻¹
εmax: Molar extinction coefficient at the absorption peak ([1]; Acetone): 5.1 × 10^4 (M^-1 cm^- 1)
λab: Absorption peak wavelength ([1]; Acetone): 501 nm
τ: Fluorescence lifetime ([1]; Acetone): 7.00 ns
λfl: Fluorescence peak wavelength ([1]; Acetone): 514 nm
φf: Quantum yield ([1]; Acetone): 0.89
kfl: Radiative decay constant ([1]; Acetonitrile): 1.21 10^8s^- 1
knr: Non-Radiative decay constant ([1]; Acetonitrile): 0.20 10^8s^- 1
Δv: Stokes shift ([1]; Acetonitrile): 469 cm⁻¹
εmax: Molar extinction coefficient at the absorption peak ([1]; Acetonitrile): 4.9 × 10^4 (M^-1 cm^- 1)
λab: Absorption peak wavelength ([1]; Acetonitrile): 500 nm
τ: Fluorescence lifetime ([1]; Acetonitrile): 7.12 ns
λfl: Fluorescence peak wavelength ([1]; Acetonitrile): 512 nm
φf: Quantum yield ([1]; Acetonitrile): 0.86
kfl: Radiative decay constant ([1]; Chloroform): 1.36 10^8s^- 1
knr: Non-Radiative decay constant ([1]; Chloroform): 0.22 10^8s^- 1
Δv: Stokes shift ([1]; Chloroform): 424 cm⁻¹
εmax: Molar extinction coefficient at the absorption peak ([1]; Chloroform): 4.8 × 10^4 (M^-1 cm^- 1)
λab: Absorption peak wavelength ([1]; Chloroform): 504 nm
τ: Fluorescence lifetime ([1]; Chloroform): 6.32 ns
λfl: Fluorescence peak wavelength ([1]; Chloroform): 514 nm
φf: Quantum yield ([1]; Chloroform): 0.86
kfl: Radiative decay constant ([1]; Ethanol): 1.22 10^8s^- 1
knr: Non-Radiative decay constant ([1]; Ethanol): 0.18 10^8s^- 1
Δv: Stokes shift ([1]; Ethanol): 427 cm⁻¹
εmax: Molar extinction coefficient at the absorption peak ([1]; Ethanol): 5.1 × 10^4 (M^-1 cm^- 1)
λab: Absorption peak wavelength ([1]; Ethanol): 502 nm
τ: Fluorescence lifetime ([1]; Ethanol): 7.10 ns
λfl: Fluorescence peak wavelength ([1]; Ethanol): 513 nm
φf: Quantum yield ([1]; Ethanol): 0.87
kfl: Radiative decay constant ([1]; Water): 1.14 10^8s^- 1
knr: Non-Radiative decay constant ([1]; Water): 0.23 10^8s^- 1
Δv: Stokes shift ([1]; Water): 470 cm⁻¹
εmax: Molar extinction coefficient at the absorption peak ([1]; Water): 3.8 × 10^4 (M^-1 cm^- 1)
λab: Absorption peak wavelength ([1]; Water): 499 nm
τ: Fluorescence lifetime ([1]; Water): 7.30 ns
λfl: Fluorescence peak wavelength ([1]; Water): 511 nm
φf: Quantum yield ([1]; Water): 0.83
fluorescence emission (wavelength) ([1]; in water): 511 nm
quantum yield ([1]; in water): up to 80%
molar absorption coefficient ([1]; in water, at 499 nm): 38000 M⁻¹ cm⁻¹
time for which the fluorescence yield remains constant ([3]; in water): 7 h
quantum yield ([3]; in water, in 24 hours): 65%
kfl ([3]; time 00:00 (hours:min)): 1.14 10^8s^-1
knr ([3]; time 00:00 (hours:min)): 0.23 10^8s^-1
εmax ([3]; time 00:00 (hours:min)): 3.8 10^4 M^-1 CM^-1
λab ([3]; time 00:00 (hours:min)): 499 nm
λfl ([3]; time 00:00 (hours:min)): 511 nm
τ ([3]; time 00:00 (hours:min)): 7.30 ns
φ ([3]; time 00:00 (hours:min)): 0.83
kfl ([3]; time 00:10 (hours:min)): 1.14 10^8s^-1
knr ([3]; time 00:10 (hours:min)): 0.24 10^8s^-1
εmax ([3]; time 00:10 (hours:min)): 3.8 10^4 M^-1 CM^-1
λab ([3]; time 00:10 (hours:min)): 498 nm
λfl ([3]; time 00:10 (hours:min)): 511 nm
τ ([3]; time 00:10 (hours:min)): 7.25 ns
φ ([3]; time 00:10 (hours:min)): 0.82
kfl ([3]; time 00:25 (hours:min)): 1.14 10^8s^-1
knr ([3]; time 00:25 (hours:min)): 0.25 10^8s^-1
εmax ([3]; time 00:25 (hours:min)): 3.8 10^4 M^-1 CM^-1
λab ([3]; time 00:25 (hours:min)): 498 nm
λfl ([3]; time 00:25 (hours:min)): 511 nm
τ ([3]; time 00:25 (hours:min)): 7.20 ns
φ ([3]; time 00:25 (hours:min)): 0.82
kfl ([3]; time 00:50 (hours:min)): 1.16 10^8s^-1
knr ([3]; time 00:50 (hours:min)): 0.24 10^8s^-1
εmax ([3]; time 00:50 (hours:min)): 3.8 10^4 M^-1 CM^-1
λab ([3]; time 00:50 (hours:min)): 498 nm
λfl ([3]; time 00:50 (hours:min)): 509 nm
τ ([3]; time 00:50 (hours:min)): 7.15 ns
φ ([3]; time 00:50 (hours:min)): 0.83
kfl ([3]; time 01:20 (hours:min)): 1.17 10^8s^-1
knr ([3]; time 01:20 (hours:min)): 0.25 10^8s^-1
εmax ([3]; time 01:20 (hours:min)): 3.8 10^4 M^-1 CM^-1
λab ([3]; time 01:20 (hours:min)): 498 nm
λfl ([3]; time 01:20 (hours:min)): 509 nm
τ ([3]; time 01:20 (hours:min)): 7.05 ns
φ ([3]; time 01:20 (hours:min)): 0.83
kfl ([3]; time 02:00 (hours:min)): 1.18 10^8s^-1
knr ([3]; time 02:00 (hours:min)): 0.25 10^8s^-1
εmax ([3]; time 02:00 (hours:min)): 3.8 10^4 M^-1 CM^-1
λab ([3]; time 02:00 (hours:min)): 497 nm
λfl ([3]; time 02:00 (hours:min)): 509 nm
τ ([3]; time 02:00 (hours:min)): 7.00 ns
φ ([3]; time 02:00 (hours:min)): 0.83
kfl ([3]; time 03:00 (hours:min)): 1.18 10^8s^-1
knr ([3]; time 03:00 (hours:min)): 0.26 10^8s^-1
εmax ([3]; time 03:00 (hours:min)): 3.8 10^4 M^-1 CM^-1
λab ([3]; time 03:00 (hours:min)): 497 nm
λfl ([3]; time 03:00 (hours:min)): 509 nm
τ ([3]; time 03:00 (hours:min)): 6.95 ns
φ ([3]; time 03:00 (hours:min)): 0.82
kfl ([3]; time 04:00 (hours:min)): 1.19 10^8s^-1
knr ([3]; time 04:00 (hours:min)): 0.26 10^8s^-1
εmax ([3]; time 04:00 (hours:min)): 3.8 10^4 M^-1 CM^-1
λab ([3]; time 04:00 (hours:min)): 497 nm
λfl ([3]; time 04:00 (hours:min)): 509 nm
τ ([3]; time 04:00 (hours:min)): 6.90 ns
φ ([3]; time 04:00 (hours:min)): 0.82
kfl ([3]; time 05:00 (hours:min)): 1.22 10^8s^-1
knr ([3]; time 05:00 (hours:min)): 0.26 10^8s^-1
εmax ([3]; time 05:00 (hours:min)): 3.8 10^4 M^-1 CM^-1
λab ([3]; time 05:00 (hours:min)): 497 nm
λfl ([3]; time 05:00 (hours:min)): 508 nm
τ ([3]; time 05:00 (hours:min)): 6.80 ns
φ ([3]; time 05:00 (hours:min)): 0.82
kfl ([3]; time 06:00 (hours:min)): 1.23 10^8s^-1
knr ([3]; time 06:00 (hours:min)): 0.26 10^8s^-1
εmax ([3]; time 06:00 (hours:min)): 3.8 10^4 M^-1 CM^-1
λab ([3]; time 06:00 (hours:min)): 496 nm
λfl ([3]; time 06:00 (hours:min)): 508 nm
τ ([3]; time 06:00 (hours:min)): 6.70 ns
φ ([3]; time 06:00 (hours:min)): 0.83
kfl ([3]; time 07:00 (hours:min)): 1.24 10^8s^-1
knr ([3]; time 07:00 (hours:min)): 0.26 10^8s^-1
εmax ([3]; time 07:00 (hours:min)): 3.8 10^4 M^-1 CM^-1
λab ([3]; time 07:00 (hours:min)): 496 nm
λfl ([3]; time 07:00 (hours:min)): 508 nm
τ ([3]; time 07:00 (hours:min)): 6.65 ns
φ ([3]; time 07:00 (hours:min)): 0.83
kfl ([3]; time 24:00 (hours:min)): 1.03 10^8s^-1
knr ([3]; time 24:00 (hours:min)): 0.54 10^8s^-1
εmax ([3]; time 24:00 (hours:min)): 3.7 10^4 M^-1 CM^-1
λab ([3]; time 24:00 (hours:min)): 496 nm
λfl ([3]; time 24:00 (hours:min)): 507 nm
τ ([3]; time 24:00 (hours:min)): 6.50 ns
φ ([3]; time 24:00 (hours:min)): 0.65
Structure (SMILES): CC1=CC(C)=[N+]2C1=C(c1c(C)cc(C)cc1C)c1c(C)cc(C)n1[B-]21OC(=O)C[C@H](C[N+](C)(C)C)O1 (stereo partly shown) [Compound 4]
tendency towards H- or J- type aggregation ([1]; concentrations as high as 10^-4 M): not exhibit any tendency towards H- or J- type aggregation
effect of (R)-palmitoylcarnitine on fluorescence intensity [2]: concentration-dependent reduction of fluorescence intensity
effect of hydrolysis on fluorescence emission ([3]; in water): does not entail a significant reduction in its fluorescence emission
